# Laboratory results: patent US20160120915A1, “METHODS FOR MANIPULATING IMMUNE RESPONSES BY ALTERING MICROBIOTA” (NEW YORK UNIVERSITY, priority 2013, published 2016)
# Entries after “also recorded” stand apart in the source; their conditions may differ. Where a name gives a salt, the structure may show the parent alone.
# How the values were obtained:
# NOD mice = experiment: NOD PAT/STAT: type 1 diabetes incidence; type: in vivo, NOD/ShiLTj mice
# Source text: Pregnant NOD/ShiLTj mice were randomized into 3 groups: Control, STAT, and PAT. Control mice were maintained on non-acidified sterilized water. STAT pregnant dams were given low dose penicillin beginning late in pregnancy until pups were 12 weeks of age. PAT mice were given 3 therapeutic doses of tylosin starting on day 10 of life. At 6 weeks of age, 13 male (5 control, 3 STAT, 5 PAT) and 15 female (5 per group) NOD mice were sacrificed for immune-phenotyping by flow cytometry and ileal gene expression analysis by microarray and qPCR. From 10 weeks of age to 31 weeks of age, mice were tested for diabetes weekly by blood glucose measurement and urinary glucose detection. Onset of diabetes was defined as two consecutive weeks of blood glucose >250 mg/dl and glucosuria.
# For the NOD experiments, dams (and their litters) were divided into control, STAT, and PAT groups (FIG. 33). The control mice were given non-acidified sterilized water throughout the experiments, and for the 2 antibiotic groups (STAT and PAT), the antibiotics were dissolved in non-acidified sterilized water. For STAT, subtherapeutic penicillin VK (1 mg/kg/day) was added to the drinking water in late pregnancy (so that the pups pass through an altered vaginal microbiota), and then continued until day 84 of life. […] Mice were monitored for diabetes onset by glucosuria and blood glucose, starting at 10 weeks of age. […]
# [1] = test system: intestinal microbial community; experiment: NOD: 16S rRNA V4 sequencing of fecal, cecal and ileal microbiota; type: in vivo, NOD mice; details: for fecal microbial community structure (PCoA, unweighted unifrac): all time points
# Protocol: Fecal pellets were collected at least weekly from weaning at 3 weeks of age until the study termination at 31 weeks of age, and stored at −20° C. until processing. DNA was extracted from fecal pellets using the PowerLyzer™ PowerSoil® DNA Isolation Kit (MoBio, Carlsbad Calif.) and stored at −20° C. Cecal and ileal samples were collected upon necropsy at 6 weeks of age, upon diabetes development, or at the termination of the experiment at […] of age, and extracted using the PowerLyzer™ PowerSoil® DNA Isolation Kit.
# Fecal samples collected at 3, 6, 10, and 13 weeks of age, and cecal and ileal samples collected at 6 weeks of age were used for sequencing. The V4 region of the 16S rRNA gene was amplified using universal primers 515 forward primer (5′ GTGCCAGCMGCCGCGGTAA 3′ SEQ ID NO: 54) and 806 reverse primer (5′ […] 3′ SEQ ID NO: 55) [Escherichia coli strain 83972 sequence (greengenes accession no. prokM-SA_id:470367] linked to a 12 base Goley barcode for multiplexing (Caporaso et al., The ISME Journal 2012; 6:1621-4. Caporaso et al., Proc. Natl. Acad. Sci. USA, 2011; 108 Suppl 1:4516-22). Sequencing was performed on the Miseq platform with a 15% PhiX spike.
# The sequences were analyzed using the macqiime 1.7.0 software (Caporaso et al., Nature Methods 2010; 7:335-6). Sequences were aligned using the Ribosomal Database Project (RDP) classifier (Wang et al., Applied and Environmental Microbiology 2007; 73:5261-7). Taxonomy was assigned based on the GreenGenes May 2013. For alpha diversity measurements, observed number of species and phylogenic distance (PD) were calculated. For beta diversity measurements, unweighted unifrac distances were calculated (Lozupone C, Knight R., Applied and Environmental Microbiology 2005; 71:8228-35). The unweighted unifrac distances were used for principal coordinates analysis (PCoA), and visualized using the KiNG software. Further sequencing analysis and correlations were performed using the phyloseq and ellipse packages in R.
# pancreatic islets = experiment: NOD: pancreatic insulitis scoring in 6-week old mice; type: in vivo; details: p<0.05
# Protocol: Pancreata from 6-week-old control, STAT and PAT mice were fixed in modified Bouin's fixative (17 ml saturated aqueous picric acid, 1 ml glacial acetic acid, 2 ml 38-40% formalin) and paraffin embedded, cut, and stained with Aldehyde Fuchsin for insulitis scoring (Leiter, Curr Protoc Immunol. 2001; Chapter 15:Unit 15 9). Five sections were made for each pancreas. Each of the sections is 5 microns thick with a 70 microns gap between sections. Insulitis was scored on a scale of 0-4: 0, normal islet; 1, peri-insular leukocyte aggregates; 2, leukocyte infiltration <25%; 3, leukocyte infiltration >25%, but <75%; 4, leukocyte infiltration >75% and β-cell destruction. For each mouse, an insulitis score was calculated based on the following formula: (total score for all islets)/(4×number of islets examined) (Forestier et al., Journal of immunology. 2007; 178, 1415). […] The most severely affected islet was scored from each section. Insulitis was scored on a scale of 0-4: 0, normal islet; 1, peri-insular leukocyte aggregates; 2, leukocyte infiltration <25%; 3, leukocyte infiltration >25%, but <75%; 4, leukocyte infiltration >75% and β-cell destruction, according to standard criteria. For the females, we scored at least 24 islets per group (5 mice per group). […] For the males, 25 islets were scored for the control and PAT group (5 mice per group), and 15 islets from the STAT group (3 mice). […]
smiles,measurement,setting,value
"CC1(C)S[C@@H]2[C@H](NC(=O)COc3ccccc3)C(=O)N2[C@H]1C(=O)[O-].[K+] [STAT, penicillin VK]",type 1 diabetes expression,"NOD mice; NOD mice, STAT-antibiotic-treated",no different from controls
same,Akkermansia muciniphila (species level),"[1]; STAT male cecal and ileal samples, vs controls (less than PAT)",more
same,prevalence of Bifidobacterium sp.,[1]; STAT-antibiotic-treated NOD mice vs controls,not different
same,"fecal microbial community structure (PCoA, unweighted unifrac)",[1]; males and females,essentially overlap
same,bloom in Verrucomicrobia,[1]; cecal and ileal samples from male STAT mice,greater than in controls but less than in PAT
same,abundance of all 3 named Bifidobacterium species,[1]; females,increased abundance
same,OTU richness,"[1]; females, only at 3 weeks of age, vs controls",significantly lower
same,OTU richness,"[1]; males, at 3 and 6 weeks of age, vs controls",significantly lower
same,islet inflammation (insulitis score 0-4),"pancreatic islets; 6-week old NOD females, vs controls",significantly more
"CC[C@H]1OC(=O)C[C@@H](O)[C@H](C)[C@@H](O[C@@H]2O[C@H](C)[C@@H](O[C@H]3C[C@@](C)(O)[C@@H](O)[C@H](C)O3)[C@H](N(C)C)[C@H]2O)[C@@H](CC=O)C[C@@H](C)C(=O)/C=C/C(C)=C/[C@@H]1CO[C@@H]1O[C@H](C)[C@@H](O)[C@@H](OC)[C@H]1OC [Tylosin, Tylosin tartrate]",development of T1D (diabetes incidence),"NOD mice; male NOD mice, onset = 2 consecutive weeks blood glucose >250 mg/dl and glucosuria, vs control, listed as PAT",accelerated; also recorded: higher rate
same,cecal and ileal microbial composition,"[1]; 6-week old NOD mice, Adonis test",significantly alters
same,Bacteroides,[1]; PAT samples after the first antibiotic pulse,decrease
same,Verrucomicrobia (phylum level),"[1]; PAT samples after the first antibiotic pulse, vs control",large bloom
same,Akkermansia muciniphila (species level),[1]; PAT samples starting at 3 weeks,large bloom
same,Phylogenic diversity (PD),"[1]; all sample times, all sample types, males and females, vs controls",lower
same,OTU richness,"[1]; all sample times, all sample types, males and females, vs controls, FDR p<0.05",lower
same,"fecal microbial community structure (PCoA, unweighted unifrac)",[1]; males and females,cluster distinctly from controls
same,relative abundance of Bifidobacterium genus,[1]; females and males,decreases
same,"relative abundance of three detectable Bifidobacterium species (B. animalis, B. adolescentis, B. pseudolongum)",[1]; females and males,decreases
same,relative abundance of unnamed Bifidobacterium species,[1]; females and males,decreases
same,intragroup beta diversity (unweighted Unifrac distance),"[1]; male NOD mice, vs controls",lower
same,insulitis (score 0-4),"pancreatic islets; 6-week old NOD males, vs control or STAT males",significantly more
